Literature values as cited in US6372197B1, “Methods and compositions using norastemizole in combination with leukotriene inhibitors” (Sepracor Inc., priority 1998, dated 2002).
Where two headings read alike, the source gives them in different places.

Tests used:
[1] = in some patients
[2] = tested on: leukotriene-dependent smooth muscle contractions; settings: in vitro, human airways
[3] = 373 patients
[4] = tested on: leukotriene (LTH4, LTC4, LTD4, and LTE4) formation; settings: in vitro
[5] = tested on: leukotriene-dependent smooth muscle contractions; settings: in vitro, guinea pig airways
LTB4 formation = settings: ex vivo, several species
[6] = in vivo
[7] = tested on: contractile activity of three leukotrienes; settings: in vitro, conducting airway smooth muscle from humans
[8] = tested on: contractile activity of three leukotrienes; settings: in vitro, conducting airway smooth muscle from laboratory animals
[9] = tested on: LTD4-induced influx of eosinophils; settings: in vivo
[10] = tested on: LTD4-induced increases in cutaneous vascular permeability; settings: in vivo

Question: Which results are given for `CC(c1cc2ccccc2s1)N(O)C(N)=O` (racemic) [Zileuton, (±)-1-(1-Benso[b]thien-2-ylethyl)-1-hydroxyurea]?
Answer: adverse effects reported [1]: headache, pain, asthenia, dyspepsia, nausea, and myalgia; inhibition of leukotriene-dependent smooth muscle contractions [2]: inhibits; efficacy ([3]; 400 mg): failed to do so; efficacy ([3]; 600 mg four times daily): required to provide efficacy; inhibition of leukotriene (LTH4, LTC4, LTD4, and LTE4) formation [4]: inhibit; inhibition of leukotriene-dependent smooth muscle contractions [5]: inhibits; inhibition of LTB4 formation (LTB4 formation): inhibitor

Question: For `COc1ccc(CCN2CCC(Nc3nc4ccccc4n3Cc3ccc(F)cc3)CC2)cc1` [Astemizole], which absorption [6] is on record?
Answer: well absorbed

Question: What about the metabolism [6] of the same molecule?
Answer: extensively metabolized

Question: With `COc1cc(C(=O)NS(=O)(=O)c2ccccc2C)ccc1Cc1cn(C)c2ccc(NC(=O)OC3CCCC3)cc12` [Zafirlukast, 4-(5-cyclopentyloxy-carbonylamino-1-methyl-indol-8-ylmethyl)-3-methoxy-N-o-tolylsulfonylbenzamide] as the molecule, how does the “antagonism of contractile activity of three leukotrienes” value [7] read?
Answer: antagonized

Question: And the adverse effects reported [1]?
Answer: headache, infection, nausea, diarrhea, pain, asthenia, abdominal pain, dizziness, myalgia, fever, vomiting, SGPT elevation, and dyspepsia

Question: And the “antagonism of contractile activity of three leukotrienes” value [8]?
Answer: antagonized

Question: What about the “inhaled LTD4-induced influx of eosinophils into animal lungs” value [9] of the same molecule?
Answer: inhibited

Question: What about the “intradermal LTD4-induced increases in cutaneous vascular permeability” value [10] of the same molecule?
Answer: prevented
